Experimental data published in patent publication US20230159597A1 (priority 2020, published 2023).

Test system: wild-type EBOV Mayinga

| SMILES | relative potency | IC50 times higher than both TAT-EBO-PEG4-Chol and TAT-EBO-dPEG4-Chol |
| --- | --- | --- |
| CC[C@H](C)[C@H](NC(=O)CNC(=O)[C@H](CO)NC(=O)CNC(=O)[C@H](CCCNC(=N)N)NC(=O)[C@H](CCCNC(=N)N)NC(=O)[C@H](CCCNC(=N)N)NC(=O)[C@H](CCC(N)=O)NC(=O)[C@H](CCCNC(=N)N)NC(=O)[C@H](CCCNC(=N)N)NC(=O)[C@H](CCCCN)NC(=O)[C@H](CCCCN)NC(=O)[C@H](CCCNC(=N)N)NC(=O)CNC(=O)[C@H](Cc1ccc(O)cc1)NC(C)=O)C(=O)N[C@@H](C)C(=O)N[C@@H](C)C(=O)N[C@H](C(=O)N[C@@H](CC(C)C)C(=O)N1CCC[C@H]1C(=O)N[C@@H](Cc1c[nH]cn1)C(=O)N[C@@H](CC(=O)O)C(=O)N[C@@H](Cc1c[nH]c2ccccc12)C(=O)N[C@H](C(=O)N[C@@H](CCCCN)C(=O)N[C@@H](CC(N)=O)C(=O)N[C@H](C(=O)N[C@H](C(=O)N[C@@H](CC(=O)O)C(=O)N[C@@H](CCCCN)C(=O)N[C@H](C(=O)N[C@@H](CC(=O)O)C(=O)N[C@@H](CCC(N)=O)C(=O)N[C@H](C(=O)N[C@H](C(=O)N[C@@H](Cc1c[nH]cn1)C(=O)N[C@@H](CC(=O)O)C(=O)N[C@@H](Cc1ccccc1)C(=O)N[C@H](C(=O)N[C@@H](CC(=O)O)C(=O)N[C@@H](CCCCN)C(=O)NCC(=O)N[C@@H](CO)C(=O)NCC(=O)N[C@@H](CO)C(=O)NCC(=O)N[C@@H](CSCC(=O)O[C@H]1CC[C@@]2(C)C(=CC[C@H]3[C@@H]4CC[C@H]([C@H](C)CCCC(C)C)[C@@]4(C)CC[C@@H]32)C1)C(N)=O)C(C)C)[C@@H](C)CC)[C@@H](C)CC)[C@@H](C)CC)[C@@H](C)O)[C@@H](C)CC)[C@@H](C)O)[C@@H](C)CC [TAT-EBO-IAAILP-Chol] | the most potent peptide we designed so far |  |
| CC[C@H](C)[C@H](NC(=O)CNC(=O)[C@H](CO)NC(=O)CNC(=O)[C@H](CCCNC(=N)N)NC(=O)[C@H](CCCNC(=N)N)NC(=O)[C@H](CCCNC(=N)N)NC(=O)[C@H](CCC(N)=O)NC(=O)[C@H](CCCNC(=N)N)NC(=O)[C@H](CCCNC(=N)N)NC(=O)[C@H](CCCCN)NC(=O)[C@H](CCCCN)NC(=O)[C@H](CCCNC(=N)N)NC(=O)CNC(=O)[C@H](Cc1ccc(O)cc1)NC(C)=O)C(=O)N[C@@H](C)C(=O)N[C@@H](C)C(=O)N[C@H](C(=O)N[C@@H](CC(C)C)C(=O)N1CCC[C@H]1C(=O)N[C@@H](Cc1c[nH]cn1)C(=O)N[C@@H](CC(=O)O)C(=O)N[C@@H](Cc1c[nH]c2ccccc12)C(=O)N[C@H](C(=O)N[C@@H](CCCCN)C(=O)N[C@@H](CC(N)=O)C(=O)N[C@H](C(=O)N[C@H](C(=O)N[C@@H](CC(=O)O)C(=O)N[C@@H](CCCCN)C(=O)N[C@H](C(=O)N[C@@H](CC(=O)O)C(=O)N[C@@H](CCC(N)=O)C(=O)N[C@H](C(=O)N[C@H](C(=O)N[C@@H](Cc1c[nH]cn1)C(=O)N[C@@H](CC(=O)O)C(=O)N[C@@H](Cc1ccccc1)C(=O)N[C@H](C(=O)N[C@@H](CC(=O)O)C(=O)N[C@@H](CCCCN)C(=O)NCC(=O)N[C@@H](CO)C(=O)NCC(=O)N[C@@H](CO)C(=O)NCC(=O)N[C@@H](CSCC(=O)NCCOCCOCCOCCOCCC(=O)O[C@H]1CC[C@@]2(C)C(=CC[C@H]3[C@@H]4CC[C@H]([C@H](C)CCCC(C)C)[C@@]4(C)CC[C@@H]32)C1)C(N)=O)C(C)C)[C@@H](C)CC)[C@@H](C)CC)[C@@H](C)CC)[C@@H](C)O)[C@@H](C)CC)[C@@H](C)O)[C@@H](C)CC [TAT-EBO-IAAILP-PEG4-Chol] |  | around 10 times |
